In ChEMBL document CHEMBL1132060, “Octa- and nonaprenylhydroquinone sulfates, inhibitors of alpha1,3-fucosyltransferase VII, from an Australian marine sponge Sarcotragus sp” (Bioorg Med Chem Lett, 1999) one finds IC50 data, which are given here for two compounds.

Structures are written as SMILES.

A short description of the assay: Inhibitory activity against fuc-TVII.

Regarding `CC(C)=CCC/C(C)=C/CC/C(C)=C/CC/C(C)=C/CC/C(C)=C/CC/C(C)=C/CC/C(C)=C/CC/C(C)=C/Cc1cc(O)ccc1OS(=O)(=O)[O-].[Na+]`, the IC50 was found to be 3.9 µg/mL. On to `CC(C)=CCC/C(C)=C/CC/C(C)=C/CC/C(C)=C/CC/C(C)=C/CC/C(C)=C/CC/C(C)=C/CC/C(C)=C/CC/C(C)=C/Cc1cc(O)ccc1OS(=O)(=O)[O-].[Na+]`, for which the IC50 amounted to 2.4 µg/mL.

As usually defined, the IC50 is the point on the concentration scale where inhibition reaches its midpoint. Low values mean greater potency in that assay, high ones weaker potency in that assay.
